Measurements reported in patent US6335339B1, “Triazine antiviral compounds” (Scriptgen Pharmaceuticals, Inc., priority 1998, dated 2002).

What was measured:
2.2.15 cells = assay: neutral red dye uptake cytotoxicity; assay type: cell-based; conditions: 9 days treatment, read-out: 50% Cell Death CC50
Experimental: Further, the antiviral effect of any compound must be measured against its toxicity. Cytotoxicity is measured by the neutral red uptake method using the same cells used for antiviral activity.
2b. Compounds were prepared for toxicity treatment as follows: For each compound, a total of 4 concentrations were examined. This required 9 sets of 4 sterile, 1.1 ml minitubes (36 tubes per compound). Into the first tube of each set, sufficient compound was aliquoted to make up 465 μl of the highest test concentration. The other tubes were left empty. The tubes were covered with the rack lids, and stored at −20° C. or at an appropriate temperature. Tubes for the last day of treatment for toxicity testing contain the same amount of compound as used the previous days (not 3xas for the antiviral assays).
3b. The cytotoxicity of test compounds was analyzed in a 3.3-fold dilution series as follows. […] (155 μl×3) of RP2 were added to the first tube (containing the aliquot of compound) and 310 μL (155 μl×2) RP2 to each of the 3 remaining tubes. 150 μl of test compound-containing medium were serially transferred from the first tube to the other 3 tubes.
5. A single plate was used for the toxicity treatments for each test compound (up to 7 compounds per plates since the top row were reserved for untreated cells on every toxicity plate). To initiate the treatments, the culture medium was removed, and 100 μl of each dilution of every compound were added to each of 3 wells using a configuration similar to that shown above for the antiviral treatments. The untreated cells received 100 μl RP2 per well. Treatment was repeated daily for 9 days.
The antiviral effect of any compound was evaluated relative to its toxicity. Cells were seeded and treated following the guidelines above, after which a neutral red dye uptake assay was performed to assess toxicity as described below. Other assays of cytotoxicity (e.g., MTT) can be substituted for the procedure described below. Note that this procedure assesses toxicity under culture and treatment conditions which are identical to those used for the antiviral analyses, thereby permitting a determination as to whether the reduction in virus production due to a specific antiviral effect or due to a cytotoxic effect on the host cell. Since the cultures, by necessity, are at confluence, the cytotoxic effects of the test compounds will probably be reduced relative to the cytotoxic effects that would be expected for actively dividing cells.
1. Cultures were treated with test compounds on the designated toxicity plates as described above.
2. The culture medium was carefully removed 24 hours following the 9th day of treatment. The monolayer was fully removed in the top left three wells (row A, col. 1-3). These wells were used as “blanks” for the plate reader.
3. 100 μl DPBS (containing 0.01% neutral red dye) were added to each well, including the empty wells, and Incubated in the tissue culture incubator for 30 minutes.
4. The dye was removed carefully and gently, using a multichannel pipetman since the monolayers can become fragile after incubation with neutral red dye. 200 μl DPBS were added to all the wells taking care not to displace the monolayers. The DPBS was removed and 100 μl 50% EtOH/1% glacial acetic acid (in H2O) were added to each well. The plates were mixed for 15 minutes on an orbital platform shaker (120-150 RPM) to allow for full extraction of the dye from the cells.
5. Optical absorbance at 510 nm was read in an ELISA type plate reader, using the 3 empty wells to set the background. An average absorbance value was calculated for the 9 untreated cultures on a plate, and the absorbance of dye for the treated cultures on the same plate was expressed as a percentage of that value. This procedure was repeated for each individual plate. […]

HBV = assay: antiviral assay in 2.2.15 cells producing HBV (virion DNA dot blot); assay type: cell-based, Hepatitis B virus; conditions: for EC50: extra-cellular virus reduced by 50%, 2.2.15 cells, 9 days treatment, read-out: Antiviral EC50
Excerpt: Several cell lines and cell culture assays have been developed to identify potential therapeutics effective against chronic HBV infection. One of these cell lines, 2.2.15, has been used in a standardized assay that has repeatedly proven to be an accurate model of chronic cellular HBV replication and a predictive model of antiviral response for chronic hepadnaviral infection in vivo. 2.2.15 cells contain copies of the complete HBV genome integrated into the cell's genome, and 2.2.15 cells are not susceptible to infection by HBV. (Sells, M. A. et al., J. Virol. 62 (8): 2836-2844 (1988)). These cells express HBV genes producing complete HBV particles capable of infecting chimpanzees (Acs, G. et al., Proc. Natl. Acad. Sci. USA 84 (13): 4641-4644 (1987)). Briefly, 2.2.15 cells are cultured and pretreated with a test compound for about 9 days, at which point the media are harvested and subjected to dot-blot hybridization to detect HBV virion DNA.
The antiviral activity of the compounds of the present invention is measured by the methods described in Korba and Gering, Antiviral Res. 19: 55-70 (1992).
This assay format is well suited to the screening of test compounds for potential antiviral activity. The assay provides a threshold assessment of antiviral activity by measuring (i) the levels of HBV virion release from the cells and (ii) cytotoxicity. Two rows of cells were used for each compound, and 4 rows for the assay controls (two for untreated, and two for positive antiviral control, e.g., 3TC). After incubating in the presence of test compound for 9 days, the media were harvested, transferred to 96-well U-bottom plates, and centrifuged. The supernatants were transferred to tubes for dot blot hybridization analysis of HBV virion DNA. The medium was aspirated off of the toxicity plates and discarded. Toxicity plates were then incubated with neutral red dye (MTT can also be used if preferred), washed with DPBS, developed with an acetic acid-ethanol solution, and assayed in a plate reader.
1. 2.2.15 cells were seeded into 96-well, flat bottom tissue culture plates as described above. Duplicate plates were used for the antiviral treatments for each test compound (up to 8 compounds per pair of plates); after three to four days, cells were confluent and medium was yellow in color; the medium was removed and replaced with 100 μl RP2 24 hours before the beginning of drug treatment.
i) For each compound, a total of 4 concentrations were examined; this required 9 sets of 4 sterile, 1.1 ml minitubes (36 tubes per compound). Into the first tube of each set, sufficient compound was aliquoted to make up 700 μl (for 10-fold dilution series) or 980 μl (for 3.3-fold dilution series) of the highest test concentration; the other tubes were left empty.
i) For a 10-fold dilution series: to the first (compound containing) tube was added 700 μl (175 μl×4). 630 μl (210 μl×3) RP2 culture medium was added to the remaining 3 tubes. The first tube was mixed by pipeting up and down with a pipetman (a multichannel pipetman permits the simultaneous processing of multiple compounds). 70 μl of test compound-containing medium were serially transferred from the first tube to the other 3 tubes, taking care to thoroughly mix each tube before transferring medium;
b) 100 μl of each dilution of every compound was added to each of 6 wells (3 wells per plate) using the configuration listed below as an example. The lowest concentration was added first, and the same tips were used to add the higher concentrations. The untreated cells received 100 μl RP2 per well (untreated cells have to be carried on only one pair of the antiviral assay plates).
c) Treatments were repeated daily for 9 days. For the last day of treatment, and additional 200 μl RP2 were added to each well of the antiviral assay plates after the wells are treated with the test compounds (a total of 300 μl medium per well).
6. […]

SMILES | CC50 (2.2.15 cells) [µM] | EC50 (HBV) [µM] | EC90 (HBV; drug alone, Example 3, read-out: 90% viral reduction (EC90)) [µM]
COc1ccc(Nc2nc(NN=Cc3cc(Br)cc(Br)c3O)nc(N3CCOCC3)n2)cc1 [Compound 200] | 309 | > 100 | 
CN(C)c1nc(NCc2ccccc2)nc(NN=Cc2ccc(Cl)cc2Cl)n1 [Compound 224] | > 300 | > 100 | 
FC(F)(F)c1cccc(Nc2nc(Nc3cccc(Cl)c3)nc(N3CCOCC3)n2)c1 [Compound 247] | 136 | > 100 | 
Cc1ccc(C=NNc2nc(Nc3ccc([N+](=O)[O-])cc3)nc(Nc3ccccc3C)n2)cc1 [Compound 15] | 0.6 | 0.5 | 
CCCCN(CCCC)c1nc(NN=Cc2ccc3c(c2)OCO3)nc(Nc2ccc([N+](=O)[O-])cc2)n1 [Compound 11] | 27 | 3.9 | 
Cc1ccc(Nc2nc(NN=Cc3cccc(I)c3)nc(Nc3ccccc3)n2)cc1 [Compound 30] | 230 | 54 | 
COc1c(Br)cc(Br)cc1C=NNc1nc(Nc2ccccc2)nc(N2CCCCC2)n1 [Compound 14] | > 100 | > 100 | 
Cc1ccc(Nc2nc(NN=Cc3ccc(Cl)cc3)nc(N3CCOCC3)n2)cc1 [Compound 249] | 134 | > 100 | 
Cc1ccc(Nc2nc(NCc3ccccc3)nc(NN=Cc3ccc(F)cc3F)n2)cc1C [Compound 191] | 836 | > 100 | 
CC(C=NNc1nc(Nc2ccc([N+](=O)[O-])cc2)nc(Nc2ccc(C)c(C)c2)n1)=Cc1ccccc1 [Compound 19] | > 300 | > 100 | 
CCCCN(CCCC)c1nc(NN=Cc2ccc([N+](=O)[O-])cc2)nc(Nc2ccc([N+](=O)[O-])cc2)n1 [Compound 5] | 307 | 0.411 | 1.3
Cc1ccc(Nc2nc(NCc3ccccc3)nc(NN=Cc3ccccc3F)n2)cc1C [Compound 228] | 243 | > 100 | 
CNc1nc(NN=Cc2ccccc2C(F)(F)F)nc(Nc2cccc(C(F)(F)F)c2)n1 [Compound 253] | 193 | 18 | 
CCCCN(CCCC)c1nc(NN=Cc2ccc(Cl)cc2)nc(Nc2ccc([N+](=O)[O-])cc2)n1 [Compound 16] | 304 | 15 | 
O=[N+]([O-])c1ccc(Nc2nc(NCc3ccccc3)nc(N3CCOCC3)n2)cc1 [Compound 231] | 218 | > 100 | 
COc1cccc(C=NNc2nc(Nc3ccccc3)nc(N3CCCC3)n2)c1O [Compound 170] | 499 | 4 | 
Cc1ccccc1Nc1nc(NN=Cc2ccc(I)cc2)nc(Nc2ccc([N+](=O)[O-])cc2)n1 [Compound 10] | > 300 | > 100 | 
Cc1ccc(Nc2nc(NCc3ccccc3)nc(NN=Cc3cc(Br)cc(Br)c3O)n2)cc1C [Compound 219] | > 300 | > 100 | 

SMILES | CC50 (2.2.15 cells) [µM] | EC50 (HBV) [µM] | EC90 (HBV; drug alone, Example 3, read-out: 90% viral reduction (EC90)) [µM]
Oc1ccc(Br)cc1C=NNc1nc(Nc2cccc(C(F)(F)F)c2)nc(N2CCOCC2)n1 [Compound 246] | 141 | 5.2 | 
O=C(NNc1nc(Nc2ccccc2)nc(Nc2cccc(C(F)(F)F)c2)n1)c1cccc(Br)c1 [Compound 220] | > 300 | > 100 | 
Cc1ccc(Nc2nc(NN=Cc3ccccc3)nc(Nc3ccccc3)n2)c(C)c1 [Compound 7] | 29 | 33 | 
CCCCN(CCCC)c1nc(NN=Cc2ccc(OCC)c(O)c2)nc(Nc2ccc([N+](=O)[O-])cc2)n1 [Compound 23] | 145 | 40 | 
Brc1ccc(Nc2nc(NCc3ccccc3)nc(Nc3ccc(Br)cc3)n2)cc1 [Compound 230] | 231 | > 100 | 
Oc1c(Br)cc(Cl)cc1/C=N/Nc1nc(Nc2cccc(C(F)(F)F)c2)nc(N2CCOCC2)n1 [Compound 34] | 41 | 66 | 
CCN(CC)CCNc1ccc2c3c(cccc13)C(=O)N(Nc1nc(NCc3ccccc3)nc(N(CC)CC)n1)C2=O [Compound 27] | > 300 | > 100 | 
COc1ccc(Nc2nc(NCc3cccc([N+](=O)[O-])c3)nc(NCc3cc(F)ccc3F)n2)cc1OC [Compound 225] | 281 | > 100 | 
CC(=NNc1nc(Nc2ccccc2)nc(N2CCCC2)n1)c1ccc(F)cc1 [Compound 227] | 247 | > 100 | 
Fc1cccc(C=NNc2nc(Nc3ccccc3)nc(N3CCCC3)n2)c1 [Compound 201] | > 300 | > 100 | 
Cc1ccc(Nc2nc(NNC(=O)c3ccccc3O)nc(Oc3ccc([N+](=O)[O-])cc3)n2)cc1C [Compound 250] | 123 | > 100 | 
COc1ccc(C=NNc2nc(NCc3ccccc3)nc(Nc3ccccc3)n2)cc1 [Compound 165] | > 300 | 3.8 | 
Cc1ccc(Nc2nc(NN=Cc3cccc([N+](=O)[O-])c3)nc(Nc3ccccc3)n2)c(C)c1 [Compound 229] | 237 | > 100 | 
FC(F)(F)c1cccc(Nc2nc(Nc3ccccc3)nc(N3CCOCC3)n2)c1 [Compound 21] | 5.6 | 5.6 | 
Oc1ccc(Br)cc1C=NNc1nc(Nc2cccc(Br)c2)nc(N2CCOCC2)n1 [Compound 232] | 190 | > 100 | 
COc1ccc(Nc2nc(NN=Cc3ccc(O)cc3O)nc(Nc3ccccc3)n2)cc1 [Compound 158] | 112 | 42 | 
COc1ccc(Nc2nc(NCCc3ccccc3)nc(N(C)C)n2)cc1OC [Compound 252] | 61 | 9.5 | 
COc1ccc(Br)cc1/C=N/Nc1nc(Nc2cccc([N+](=O)[O-])c2)nc(N2CCOCC2)n1 [Compound 28] | 33 | > 100 | 
